Laboratory results as given in patent EP4759814A1, “TRICYCLIC COMPOUND AND USE THEREOF AS MAT2A INHIBITOR” (SK Biopharmaceuticals Co., Ltd., priority 2023, dated 2025).

These compounds were tested against T1, MAT2A (Homo sapiens, UniProt P31153) (assay: MAT2A inhibitory activity, colorimetric phosphate detection (PiColorLock) enzyme assay). Conditions: Test Condition 1 or 2 (not stated which per compound); absorbance at 630 nm.
T1 construct: purchased BPS Bioscience (USA) 71401
Assay type: biochemical
Description: In vitro assay: Methionine and adenosine triphosphate (ATP) are converted into S-adenosylmethionine (SAM) and inorganic phosphate (pi) via the catalytic action of methionine adenosyltransferase 2A (MAT2A). The produced pi is detected by the PiColorLock™ Phosphate Detection Reagent, which is a colorimetric assay, and the activity of MAT2A can be evaluated according to the amount of pi generated during the enzyme reaction. Each compound was evaluated under Test Condition 1 or 2 as described below.
• Concentration of MAT2A inhibitor: maximum concentration of 50 µM, 5-fold dilution (7 groups in total) • MAT2A concentration: 12 ng/µL • ATP and Met concentration: 100 µM, 80 µM
• Concentration of MAT2A inhibitor: maximum concentration of 1 µM, 3-fold dilution (7 groups in total) • MAT2A concentration: 4 ng/µL • ATP and Met concentration: 300 µM, 150 µM • Reagents: Methionine (catalog number M5308) and ATP (catalog number A2383) were purchased from Sigma-Aldrich (USA). MAT2A (catalog number 71401) was purchased from BPS Bioscience (USA), and PiColorLock™ Phosphate Detection Reagent (catalog number 303-0030) was purchased from Novus (USA).
Assay buffer composition: 50 mM Tris-HCl pH 8.0, 50 mM KCI, 15 mM MgCl2, 0.3 mM EDTA, 0.005 % (w/v) BSA
Experimental procedure: Each compound was diluted 5-fold or 3-fold based on the maximum concentration (5 mM or 1 mM or 0.1 mM) using DMSO. The diluted compounds were diluted 20-fold using assay buffer, and then mixed at a volume ratio of 1:2 with MAT2A (30 ng/µL or 10 ng/µL) diluted with assay buffer and treated for 30 minutes at room temperature. The negative control group is a group untreated with both the MAT2A enzyme and the compound according to an embodiment of the present application, and the positive control group is a group treated only with the MAT2A enzyme and untreated with the compound according to an embodiment of the present application.
In each well of a 384-well plate, 30 µL of the mixed solution and 20 µL of a 1:1 mixed solution of ATP (0.5 mM or 1.5 mM) and Met (0.4 mM or 0.75 mM) were mixed and then treated for 1 hour at room temperature. After the enzyme reaction, 13 µL of a 100:1 mixed solution of PiColorLockTM and Accelerator was treated in each well and reacted for 5 minutes at room temperature. After treating 5 µL of Stabilizer in each well and reacting for 25 minutes at room temperature, the absorbance at 630 nm was measured using SpectraMax M4 (Molecular Devices, USA) to calculate the IC50 value of the compound.
Analysis method: The enzyme activity (%) of each experimental group was calculated as {(average O.D. of compound-treated group - average O.D. of negative control group)/(average O.D. of positive control group - average O.D. of negative control group)} * 100. After preparing a dose-response curve (4-parameter) using the enzyme activity according to the treatment concentration of each compound in GraphPad Prism 9, the 50 % of enzyme inhibitory activity value (IC50) was calculated through non-linear regression analysis. The IC50 results measured for the MAT2A activity inhibitory ability of the compounds according to an embodiment of the present application are shown in Table 2 (+++: more than 1 to 100 nM, ++: more than 100 to 1,000 nM, +: more than 1,000 to 10,000 nM, -: more than 10,000 nM).

T1 sequence (P31153 whole entry): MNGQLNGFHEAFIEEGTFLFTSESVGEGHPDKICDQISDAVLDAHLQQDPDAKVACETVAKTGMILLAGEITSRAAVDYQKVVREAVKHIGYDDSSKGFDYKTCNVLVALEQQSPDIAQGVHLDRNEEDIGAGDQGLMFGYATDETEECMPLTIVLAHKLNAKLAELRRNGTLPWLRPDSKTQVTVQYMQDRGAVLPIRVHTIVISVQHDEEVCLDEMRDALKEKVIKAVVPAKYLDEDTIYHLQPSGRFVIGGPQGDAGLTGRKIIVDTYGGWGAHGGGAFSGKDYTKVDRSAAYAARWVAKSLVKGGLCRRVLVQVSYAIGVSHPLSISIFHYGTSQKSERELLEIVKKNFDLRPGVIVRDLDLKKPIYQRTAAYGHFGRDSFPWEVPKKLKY

Compound	IC50
Cc1ncccc1-n1c(=O)c2nccn2c2cc(Cl)c(Br)cc21 (atropisomer, axis not shown; (Ra)) [Example 80, (Ra)-7-bromo-8-chloro-5-(2-methylpyridin-3-yl)imidazo[1,2-a]quinoxalin-4(5H)-one]	> 10 µM
Cc1cc2c(cc1C(F)(F)F)n(-c1cccnc1C)c(=O)c1nccn12 (atropisomer, axis not shown; (Ra)) [Example 94, (Ra)-8-methyl-5-(2-methylpyridin-3-yl)-7-(trifluoromethyl)imidazo[1,2-a]quinoxalin4(5H)-one]	> 10 µM
Cc1ncccc1-n1c(=O)c2nccn2c2cc(Cl)c(C(F)(F)F)cc21 (atropisomer, axis not shown; (Ra)) [Example 97, (Ra)-8-chloro-5-(2-methylpyridin-3-yl)-7-(trifluoromethyl)imidazo[1,2-a]quinoxalin-4(5H)-one]	> 10 µM
CCc1ncccc1-n1c(=O)c2nccn2c2cc(Cl)c(C(F)(F)F)cc21 (atropisomer, axis not shown; (Ra)) [Example 111, (Ra)-8-chloro-5-(2-ethylpyridin-3-yl)-7-(trifluoromethyl)imidazo[1,2-a]quinoxalin-4(5H)-one]	> 10 µM
O=c1c2nccn2c2ccc(Cl)cc2n1-c1ccccc1F [Example 12, 7-chloro-5-(2-fluorophenyl)imidazo[1,2-a]quinoxalin-4(5H)-one]	> 10 µM
Cc1c(F)cccc1-n1c(=O)c2nccn2c2ccc(OCC(F)(F)F)cc21 [Example 29, 5-(3-fluoro-2-methylphenyl)-7-(2,2,2-trifluoroethoxy)imidazo[1,2-a]quinoxalin-4(5H)-one]	> 10 µM
CCOc1ccc2c(c1)n(-c1cccc(F)c1C)c(=O)c1nccn12 [Example 31, 7-ethoxy-5-(3-fluoro-2-methylphenyl)imidazo[1,2-a]quinoxalin-4(5H)-one]	> 10 µM
Cc1ccccc1-n1c(=O)c2nccn2c2ccc(F)cc21 [Example 41, 7-fluoro-5-(o-tolyl)imidazo[1,2-a]quinoxalin-4(5H)-one]	1 to 10 µM
Cc1ccccc1-n1c(=O)c2nccn2c2cnc(Cl)cc21 [Example 42, 3-chloro-5-(o-tolyl)imidazo[1,2-a]pyrido[4,3-e]pyrazin-6(5H)-one]	> 10 µM
N#Cc1ccccc1-n1c(=O)c2nccn2c2ccc(Cl)cc21 [Example 43, 2-(7-chloro-4-oxoimidazo[1,2-a]quinoxalin-5(4H)-yl)benzonitrile]	> 10 µM
CS(=O)(=O)Nc1cccc(-n2c(=O)c3nccn3c3ccc(Cl)cc32)c1 [Example 44, N-(3-(7-chloro-4-oxoimidazo[1,2-a]quinoxalin-5(4H)-yl)phenyl)methanesulfonamide]	0.001 to 0.1 µM
Cc1ccccc1-n1c(=O)c2nccn2c2ccc(C(C)C)nc21 [Example 47, 7-isopropyl-5-(o-tolyl)imidazo[1,2-a]pyrido[2,3-e]pyrazin-4(5H)-one]	> 10 µM
Cc1nccnc1-n1c(=O)c2nccn2c2ccc(Cl)cc21 [Example 48, 7-chloro-5-(3-methylpyrazin-2-yl)imidazo[1,2-a]quinoxalin-4(5H)-one]	0.1 to 1 µM
O=c1c2nccn2c2ccc(Cl)cc2n1-c1ccccc1OC(F)(F)F [Example 50, 7-chloro-5-(2-(trifluoromethoxy)phenyl)imidazo[1,2-a]quinoxalin-4(5H)-one]	1 to 10 µM
Cc1cccc(C)c1-n1c(=O)c2nccn2c2ccc(Cl)cc21 [Example 51, 7-chloro-5-(2,6-dimethylphenyl)imidazo[1,2-a]quinoxalin-4(5H)-one]	> 10 µM
Cc1cccnc1-n1c(=O)c2nccn2c2ccc(Cl)cc21 [Example 53, 7-chloro-5-(3-methylpyridin-2-yl)imidazo[1,2-a]quinoxalin-4(5H)-one]	> 10 µM

Next, values leading:

IC50	Compound
1 to 10 µM	CC(=O)c1cnc2c(=O)n(-c3cccnc3C)c3cc(C(F)(F)F)ccc3n12 [Example 59, 1-acetyl-5-(2-methylpyridin-3-yl)-7-(trifluoromethyl)imidazo[1,2-a]quinoxalin-4(5H)-one]
> 10 µM	Cc1ncccc1-n1c(=O)c2nc(CN3CCN(C)CC3)cn2c2ccc(Cl)cc21 [Example 61, 7-chloro-2-((4-methylpiperazin-1-yl)methyl)-5-(2-methylpyridin-3-yl)imidazo[1,2-a]quinoxalin-4(5H)-one]
0.1 to 1 µM	Cc1ncccc1-n1c(=O)c2nc(CN3CCOCC3)cn2c2ccc(Cl)cc21 [Example 62, 7-chloro-5-(2-methylpyridin-3-yl)-2-(morpholinomethyl)imidazo[1,2-a]quinoxalin-4(5H)-one]
> 10 µM	Cc1ncccc1-n1c(=O)c2nc(CN3CCC4(CC3)COC4)cn2c2ccc(Cl)cc21 [Example 63, 2-((2-oxa-7-azaspiro[3.5]nonane-7-yl)methyl)-7-chloro-5-(2-methylpyridin-3-yl)imidazo[1,2-a]quinoxalin-4(5H)-one]
0.1 to 1 µM	COCCNCc1cn2c(n1)c(=O)n(-c1cccnc1C)c1cc(Cl)ccc12 [Example 64, 7-chloro-2-(((2-methoxyethyl)amino)methyl)-5-(2-methylpyridin-3-yl)imidazo[1,2-a]quinoxalin-4(5H)-one]
1 to 10 µM	Cc1ccccc1-n1c(=O)c2nccn2c2cc(Br)c(Cl)cc21 [Example 72, 8-bromo-7-chloro-5-(o-tolyl)imidazo[1,2-a]quinoxalin-4(5H)-one]
> 10 µM	Cc1ncccc1-n1c(=O)c2nccn2c2cc(C(F)(F)F)c(Br)cc21 [Example 76, 7-bromo-5-(2-methylpyridin-3-yl)-8-(trifluoromethyl)imidazo[1,2-a]quinoxalin-4(5H)-one]
> 10 µM	Cc1ncccc1-n1c(=O)c2nccn2c2cc(C(F)F)c(Br)cc21 [Example 82, 7-bromo-8-(difluoromethyl)-5-(2-methylpyridin-3-yl)imidazo[1,2-a]quinoxalin-4(5H)-one]
1 to 10 µM	Cn1nccc1-n1c(=O)c2nccn2c2cc(Cl)c(Br)cc21 [Example 83, 7-bromo-8-chloro-5-(1-methyl-1H-pyrazol-5-yl)imidazo[1,2-a]quinoxalin-4(5H)-one]
> 10 µM	Cc1cc2c(cc1Br)n(-c1cccnc1O)c(=O)c1nccn12 [Example 90, 7-bromo-5-(2-hydroxypyridin-3-yl)-8-methylimidazo[1,2-a]quinoxalin-4(5H)-one]
> 10 µM	Cc1ncccc1-n1c(=O)c2nccn2c2c(N3CCCC3)cc(Cl)cc21 [Example 104, 7-chloro-5-(2-methylpyridin-3-yl)-9-(pyrrolidine-1-yl)imidazo[1,2-a]quinoxalin-4(5H)-one]
> 10 µM	Cc1ncccc1-n1c(=O)c2nccn2c2c(N(C)C)cc(Cl)cc21 [Example 106, 7-chloro-9-(dimethylamino)-5-(2-methylpyridin-3-yl)imidazo[1,2-a]quinoxalin-4(5H)-one]
0.1 to 1 µM	Cc1ncccc1-n1c(=O)c2nccn2c2c(OC(F)F)cc(C(F)(F)F)cc21 [Example 115, 9-(difluoromethoxy)-5-(2-methylpyridin-3-yl)-7-(trifluoromethyl)imidazo[1,2-a]quinoxalin-4(5H)-one]
0.001 to 0.1 µM	Cc1ncccc1-n1c(=O)c2nccn2c2c(OCC(F)(F)F)cc(C(F)(F)F)cc21 [Example 117, 5-(2-methylpyridin-3-yl)-9-(2,2,2-trifluoroethoxy)-7-(trifluoromethyl)imidazo[1,2-a]quinoxalin-4(5H)-one]
0.001 to 0.1 µM	CCOc1cc(C(F)(F)F)cc2c1n1ccnc1c(=O)n2-c1cccnc1C [Example 118, 9-ethoxy-5-(2-methylpyridin-3-yl)-7-(trifluoromethyl)imidazo[1,2-a]quinoxalin-4(5H)-one]
